Data set [1] relates to P388 ascitic leukemia. The data set can be described thus: In vivo activity against systemic tumor P388. The note with it: 20 mg/kg IP once daily, five days; positive control. Set-up: species or system mouse. Here is the method: Prior to testing, P388 was propagated intraperitoneally in female DBA2 mice. The ascitic tumors were intraperitoneally injected in female B6 D2 F1 mice at a concentration of 10^6 cells per mouse. The mice were treated with antiumor agents administered once daily for five consecutive days, with the antineoplastic 5-fluorouracil used as a positive control.
All drugs were administered intraperitoneally in 5% aqueous dextrose or other suitable diluent. Drug efficacy was evaluated based on prolongation of mean survival time (MST). Improvement of MST was calculated as % MST(T/C), the percent ratio of mean survival times of test (T) versus control (C) mice. Compounds having % MST(T/C) values greater than 125 are considered to have significant activity. The antitumor activity of the two compounds in the P388 systemic leukemia model is illustrated in Table 3 below.

Data set [2] relates to A549 human lung cancer cell line. The data set is described as follows: In vitro cytotoxicity (MTT), A549. The note with it: A549, 72 h, read-out: In Vitro Cytotoxicity (IC50), A549, Table 2, ADR: average of two tests. It is filed as cell-based. Here is the method:
(§1) Metabolic activity was measured by the cells' ability to reduce the tetrazolium dye, 3-(4,5-dimethylthiazol-2-yl)-2,5-diphenyltetrazolium bromide (MTT), to a quantifiable colored formasan derivative. Surviving cells reduce the MTT dye. The inhibitory concentrations of killing 50% of the cells (IC50 s) were calculated. Testing was in accord with the following protocol:
(§2) Test compounds and a reference antineoplastic agent, ADRIAMYCIN (doxorubicin hydrochloride), were dissolved in dimethyl sulfoxide (DMSO) and diluted, first with Earle's Balanced Salt Solution, followed by culture medium, to twice the highest concentration of the compound to be tested. From this concentrated stock, two-fold serial dilutions were prepared in 96-well microtiter trays, each well containing twice the desired final concentration of the compound. Each concentration was tested in triplicate and compared to triplicate drug-free controls.
(§3) The cells were grown in the same medium used for diluting the compounds. Adherent cells were harvested by trypsinization according to the following procedure:
(§4) After harvesting by trypsinization, viable cell counts were determined and cell density was adjusted to 25,000 cells/mL. Inoculum (0.1 mL) was then added to each well for a final concentration of 2,500 cells per well. Addition of the inoculum was used to dilute the test compounds to the desired concentration.
(§5) Microtiter trays were incubated for three days at 36° C. in a humidified atmosphere containing 5% carbon dioxide.
(§6) After three days, 20 microliters of 5 mg/mL MTT in phosphate-buffered solution were added to each well of the microtiter trays. The microtiter trays were then returned to the incubator for two to four hours to allow the surviving cells to reduce the dye. After this incubation, both the medium and the unreduced dye were removed by aspiration. DMSO was added to each well to dissolve the water-insoluble, colored end product of the dye reduction for spectrophotometric measurement at 570 nm.
(§7) The results obtained which clearly show the cytotoxicity of the compounds of Examples 5, 6, 7 and 8 against […] tumor cell lines A549, HCT-8, HT-29 and P388-D1, are illustrated in Table 1. (A549 is a human lung cancer cell line; HCT-8 is a human colon cancer cell line; HT-29 is a human colon cancer cell line; and P388-D1 is a mouse leukemia cell line.)

The subject of data set [3] is HT-29 human colon cancer cell line. The data set is described as follows: In vitro cytotoxicity (MTT), HT-29. It is filed as cell-based. The conditions noted are these: HT-29, 72 h, read-out: In Vitro Cytotoxicity (IC50), HT-29, Table 2, ADR: average of two tests. As for the experimental part: as §1, §2, §3, §4, §5, §6, §7
Data set [4] has as its system P388 mouse leukemia cell line. The data set is described as follows: In vitro cytotoxicity (MTT), P388. The note with it: P388, 72 h, read-out: In Vitro Cytotoxicity (IC50). It is filed as cell-based. As for the experimental part: as §1, §2, §3, §4, §5, §6
(§8) Compounds from Examples 4, 6, 8, 9 and 10 were additionally tested against human and murine tumor cell lines A549, HT-29, P388-D1, P388, P388-ADR(0.0), P388-ADR(0.1) and B16F109. (P388 is a mouse leukemia cell line similar to P388-D1, but animal-passaged; P388-ADR (0.0) is an ADRIAMYCIN-resistant variant of P388, the inoculum of which is grown in drug-free medium; P388-ADR (0.1) is an ADRIAMYCIN-resistant variant of P388, the inoculum of which is grown in medium with 0.1 mcg.ml ADRIAMYCIN; and B16F10 is a mouse melanoma.) The results are presented in Table 2; as shown in the table, the compounds of the present invention are effective cytotoxic agents even against the ADRIAMYCIN-resistant cell line P388-ADR.

Data set [5] relates to B16F10 mouse melanoma. The data set can be described thus: In vitro cytotoxicity (MTT), B16F10. It is filed as cell-based. The note with it: B16-F10, 72 h, read-out: In Vitro Cytotoxicity (IC50). Here is the method:
as §1, §2, §3, §4, §5, §6, §8

In data set [6] the test system is P388-ADR(0.0), ADRIAMYCIN-resistant variant of P388. The data set is described as follows: In vitro cytotoxicity (MTT), P388-ADR(0.0). The data set is classed as cell-based. The conditions noted are these: Mus musculus, 72 h, inoculum grown in drug-free medium, Table 2. Here is the method: as §1, §2, §3, §4, §5, §6, §8
The nature of data set [7]: Aqueous solubility. The data set is classed as physicochemical. The note with it: water. An excerpt: The effect of peptidyl substitution on the solubility of the compounds of the invention was examined by dissolving samples thereof in water.

Values joined by “and” are separate entries in the source; they are usually repeats but may differ in a detail not shown here. Equal entries are not always repeated. Structures can show the parent of a compound that is named as a salt.

As for `O=c1[nH]cc(F)c(=O)[nH]1` [5-Fluorouracil, 5-fluorouracil, reference compound], the “% MST(T/C)” value in data set [1] was 160% and 186.67%.
Turning to `N[C@H]1CCN(c2c(F)cc3c(=O)c(C(=O)O)cn4c3c2Oc2ccccc2-4)C1` [Example 16, 1((3S)-3-aminopyrrolidin-1-yl)-2-fluoro-4-oxo-4H-quino[2,3,4-i,j][1,4]benzoxazine-5-carboxylic acid hydrochloride], the concentration for half-maximal inhibition (IC50) in data set [2] was 0.23 mg/L; in data set [3], 0.055 mg/L; in data set [4], 0.017 mg/L; in data set [5], 0.018 mg/L; in data set [6], 0.12 mg/L.
On the same counts, the results for `N[C@@H]1CCN(c2c(F)cc3c(=O)c(C(=O)O)cn4c3c2Oc2ccccc2-4)C1` [Example 17, 1-((3R)-3-aminopyrroidin-1-yl)-2-fluoro-4-oxo-4H-quino[2,3,4-i,j][1,4]benzoxazine-5-carboxylic acid hydrochloride] are 0.042 mg/L, 0.068 mg/L, 0.021 mg/L, 0.011 mg/L and 0.1 mg/L.
For `Cc1ccc2c(c1)Oc1c(N3CC[C@H](N)C3)c(F)cc3c(=O)c(C(=O)O)cn-2c13` [Example 18, 1-((3S)-3-aminopyrrolidin-1-yl)-2-fluoro-9-methyl-4-oxo-4H-quino[2,3,4-i,j][1,4]benzoxazine-5-carboxylic acid hydrochloride], the IC50 in data set [2] worked out at 0.11 mg/L; in data set [3] it was 0.04 mg/L; in data set [4] it was 0.047 mg/L; in data set [5], 0.024 mg/L; in data set [6], 0.13 mg/L.
Taken in the same sequence, the figures for `NC1CCN(c2c(F)cc3c(=O)c(C(=O)N4CCOCC4)cn4c3c2Oc2ccccc2-4)C1` (centres unmarked) [Example 29, 1-(3-aminopyrrolidin-1-yl)-2-fluoro-5-(1-morpholinocarbonyl)-4-oxo-4H-quino[2,3,4-i,j][1,4]benzoxazine trifluoracetate salt] were 6 mg/L, 1.4 mg/L, 0.54 mg/L, 0.56 mg/L and 49.4 mg/L.
The compound `CCC[C@H](NC(=O)[C@@H](N)CCC)C(=O)NC1CCN(c2c(F)cc3c(=O)c(C(=O)O)cn4c3c2Oc2ccccc2-4)C1` (some centres unmarked) [Example 38, 1-(3-Norvalylnorvalylaminopyrrolidin-1-yl)-2-fluoro-4-oxo-4H-quino[2,3,4-i,j][1,4]benzoxazine-5-carboxylic acid hydrochloride] had a solubility in data set [7] of 11.1 mg/mL.
`CCC[C@H](N)C(=O)N[C@@H](C)C(=O)NC1CCN(c2c(F)cc3c(=O)c(C(=O)O)cn4c3c2Oc2ccccc2-4)C1` (some centres unmarked) [Example 40, 1-(3-Norvalylalanylaminopyrrolidin-1-yl)-2-fluoro-4-oxo-4H-quino[2,3,4-i,j][1,4]benzoxazine-5-carboxylic acid hydrochloride] had a solubility in data set [7] greater than 47.8 mg/mL.

The IC50 is the concentration that gives 50% inhibition. The solubility is how much of the substance goes into solution per volume. Higher therefore signals much dissolved substance.

The values above are taken from patent publication US5624924A, “Quinobenzothiazine antineoplastic agents” (priority 1994, dated 1997).
